Results taken from US20220241311A1, “METHODS AND MATERIALS FOR TREATING GLYCOSYLATION DISORDERS” (priority 2018, published 2022).
Entries after “also recorded” stand apart in the source; their conditions may differ.

Tests used:
[1] = test system: serum transferrin; assay: Glycomics / high-resolution mass spectrometry of intact serum transferrin at T0 and T3; format: in vivo, human; details: for Ratio A-Glyco / DiGlyco transferrin / Ratio Mono-Glyco / DiGlyco transferrin / Ratio Trisialo-Glyco / DiGlyco transferrin: T = 3; for Ratio A-Glyco / DiGlyco transferrin: control range <=0.01040; for Ratio Mono-Glyco / DiGlyco transferrin: control range <=0.02700; for Ratio Trisialo-Glyco / DiGlyco transferrin: control range <=0.031900
Description: Liver transaminases (aspartate transaminase (AST) and alanine transaminase (ALT)), creatine kinase (CK), commonly assayed glycoproteins (thyroid stimulating hormone (TSH), thyroxine-binding globulin (TBG), and insulin-like growth factor binding protein 3 (IGF3BP)), and coagulation parameters (Factor IX, Factor XI, activated […] (aPTT), and anti-thrombin III (ATIII)), were measured in blood. Patent 1 had additional Factor XI, and XIII measurements. Serum galactose-1-phosphate and urine galactitol were measured to monitor safety and tolerability of galactose supplementation. Biochemical studies to evaluate changes in glycosylation included isoelectric focusing (IEF) of serum transferrin and glycomic analysis in blood by mass spectrometry.
Plasma (sodium heparin) or serum was used for glycomics analysis according to the procedure as described elsewhere (see, e.g., van Scherpenzeel et al., 2015 Transl Res 166:639-649.e1). Briefly, a 10 μl serum sample was purified using anti-transferrin beads. The eluate was analyzed on a microfluidic 6540 LC-chip-QTOF instrument (Agilent Technologies) using a C8 protein chip. Data analysis was performed using Agilent Mass Hunter Qualitative Analysis Software B.05.00.
The most abundant peaks in the transferrin mass spectrometry profiles were annotated, and ratios were calculated for the nonglycosylated (A-Glyco), monoglycosylated (Mono-Glyco), and trisialo- (Trisialo-Glyco) transferrin over the normal transferrin peak (tetrasialo; Di-Glyco). Ratios were compared in patient samples before D-gal supplementation and 18 weeks after starting oral supplements according to protocol. An example is shown in FIG. 5 for a severely (patient 2) and a mildly (patient 9) abnormal profile. A-Glyco- and Mono-Glyco ratios were abnormal in all patients. […] The most pronounced improvement was measured in patient 4. In patients 3 and 8, the A-Glyco peak normalized (Table 3, FIG. 6).

[2] = test system: PGM1-CDG fibroblasts; assay: Galactose supplementation of PGM1-CDG fibroblasts, tracer based metabolomics; format: cell-based, human
Description: To probe the biochemical basis to galactose treatment, a tracer based metabolomics was employed to simultaneously track the activity of multiple pathways. Control and PGM1-CDG fibroblasts were cultured with 13C tagged glucose, with and without galactose. The 13C tracer was then incorporated into connected pathways after which, the cells were harvested to enable detection of metabolites by the mass-spectrometry.

[3] = test system: ICAM-1; assay: ICAM-1 Western blotting with galactose supplementation, healthy cells
[4] = test system: healthy controls (WT) fibroblasts; assay: Nucleotide sugar analysis (UPLC-PDA), healthy controls; format: cell-based, human
Description: Levels of nucleotides and sugar-nucleotides were determined. Fibroblast cell pellets (5×10^6 cells per sample) were lysed and extracted in 0.37 ml ice-cold 0.5 M perchloric acid with sonication on ice. Samples were neutralized with 86 μl ice-cold neutralization solution (2.5 M KOH in 1.5 M K2HPO4) after 5 minute sonication. To remove precipitated potassium perchlorate neutralized samples were centrifuged at 4° C. and 16,400×g for 10 minutes and filtered with 0.2 μm filters. Nucleotides and sugar-nucleotides were immediately analyzed and separated via ion-pair reverse phased chromatography using an Acquity HSS T3 column (150 mm×2.1 mm, 1.7 μm, Waters) connected to an Acquity H-class UPLC system. The column temperature was set to 40° C. and the column was equilibrated with solvent A (50 mM potassium phosphate buffer, 8 mM tetrabutylammonium hydrogensulfate, pH 6.5) at a flow rate of 0.45 ml min^−1. Autosampler temperature was maintained at 6° C. […] Nucleotides were detected by Acquity PDA detector (Waters, 260 nm) and quantified using ultrapure standards (Sigma). Data acquisition and processing was performed with the Empower3 software suite (Waters).
Nucleotide sugars were measured with serum starvation during 18 hours of culturing and without of serum starvation and applying normal media.

[5] = 2 mM galactose added to the culture medium for 5 days

## O=C[C@H](O)[C@@H](O)[C@@H](O)[C@H](O)CO [D-gal, D-galactose]
[1]; 8 patients, type 2 pattern shifting to mild type 1 pattern
  Transferrin glycosylation: Clear improvement
[1]; Patient 1
  Ratio A-Glyco / DiGlyco transferrin: 0.042
  Ratio Mono-Glyco / DiGlyco transferrin: 0.198
  Ratio Trisialo-Glyco / DiGlyco transferrin: 0.0778
[1]; Patient 2
  Ratio A-Glyco / DiGlyco transferrin: 0.046
  Ratio Mono-Glyco / DiGlyco transferrin: 0.213
  Ratio Trisialo-Glyco / DiGlyco transferrin: 0.0542
[1]; Patient 3
  Ratio A-Glyco / DiGlyco transferrin: 0.002
  Ratio Mono-Glyco / DiGlyco transferrin: 0.071
  Ratio Trisialo-Glyco / DiGlyco transferrin: 0.0549
[1]; Patient 4
  Ratio A-Glyco / DiGlyco transferrin: 0.314
  Ratio Mono-Glyco / DiGlyco transferrin: 0.632
  Ratio Trisialo-Glyco / DiGlyco transferrin: 0.0938
[1]; Patient 5
  Ratio A-Glyco / DiGlyco transferrin: 0.021
  Ratio Mono-Glyco / DiGlyco transferrin: 0.142
  Ratio Trisialo-Glyco / DiGlyco transferrin: 0.0740
[1]; Patient 6
  Ratio A-Glyco / DiGlyco transferrin: 0.044
  Ratio Mono-Glyco / DiGlyco transferrin: 0.293
  Ratio Trisialo-Glyco / DiGlyco transferrin: 0.0639
[1]; Patient 7
  Ratio A-Glyco / DiGlyco transferrin: 0.108
  Ratio Mono-Glyco / DiGlyco transferrin: 0.356
  Ratio Trisialo-Glyco / DiGlyco transferrin: 0.0551
[1]; Patient 8 (non-compliant)
  Ratio A-Glyco / DiGlyco transferrin: 0.003
  Ratio Mono-Glyco / DiGlyco transferrin: 0.081
  Ratio Trisialo-Glyco / DiGlyco transferrin: 0.0712
[1]; Patient 9
  Ratio A-Glyco / DiGlyco transferrin: 0.019
  Ratio Mono-Glyco / DiGlyco transferrin: 0.127
  Ratio Trisialo-Glyco / DiGlyco transferrin: 0.0561
[1]; T3
  Transferrin glycosylation pattern: None of the patients showed a normalized pattern
[1]; patient 5
  Transferrin glycosylation: no change was observed
[1]; patients 3 and 8, 18 weeks
  A-glyco fraction: completely normalized
[2]; [5]
  Cellular UDP-hexose pools: significant increase
  Cellular glycosylation: improved cellular glycosylation
[2]; culture media supplemented with galactose
  Levels of UDP-glucose and UDP-galactose: restored depleted levels; also recorded: significantly increased
[2]; culture supplemented with galactose
  Glycosylation: restarted stalled glycosylation
[3]
  ICAM-1 expression: no effect
[4]; WT, 1 d 2 mM Galactose
  ADP: 483.78 pmol/mio cells
  AMP: 10.14 pmol/mio cells
  ATP: 2604.27 pmol/mio cells
  CTP: 291.83 pmol/mio cells
  GDP: 194.35 pmol/mio cells
  GDP-Man: 72.63 pmol/mio cells
  GTP: 491.50 pmol/mio cells
  UDP: 159.94 pmol/mio cells
  UDP-Gal: 400.64 pmol/mio cells
  UDP-Glc: 345.82 pmol/mio cells
  UTP: 1267.16 pmol/mio cells
  cAMP: 77.78 pmol/mio cells
[4]; WT, 1 d + 0.75 mM Galactose
  ADP: 506.33 pmol/mio cells
  AMP: 16.00 pmol/mio cells
  ATP: 2677.06 pmol/mio cells
  CTP: 288.74 pmol/mio cells
  GDP: 215.25 pmol/mio cells
  GDP-Man: 97.79 pmol/mio cells
  GTP: 519.85 pmol/mio cells
  UDP: 164.12 pmol/mio cells
  UDP-Gal: 298.39 pmol/mio cells
  UDP-Glc: 313.93 pmol/mio cells
  UTP: 1283.20 pmol/mio cells
  cAMP: 70.82 pmol/mio cells
[4]; WT, 4 d 2 mM Galactose
  ADP: 800.89 pmol/mio cells
  AMP: 43.70 pmol/mio cells
  ATP: 4045.74 pmol/mio cells
  CTP: 267.44 pmol/mio cells
  GDP: 375.01 pmol/mio cells
  GDP-Man: 179.79 pmol/mio cells
  GTP: 706.71 pmol/mio cells
  UDP: 209.11 pmol/mio cells
  UDP-Gal: 227.46 pmol/mio cells
  UDP-Glc: 272.66 pmol/mio cells
  UDP-GlcNAc: 5.74 pmol/mio cells
  UTP: 1538.99 pmol/mio cells
  cAMP: 71.87 pmol/mio cells
[4]; WT, 4 d + 0.75 mM Galactose
  ADP: 670.35 pmol/mio cells
  AMP: 28.04 pmol/mio cells
  ATP: 4021.73 pmol/mio cells
  CTP: 254.91 pmol/mio cells
  GDP: 307.92 pmol/mio cells
  GDP-Man: 191.57 pmol/mio cells
  GTP: 691.97 pmol/mio cells
  UDP: 156.18 pmol/mio cells
  UDP-Gal: 219.26 pmol/mio cells
  UDP-Glc: 268.34 pmol/mio cells
  UTP: 1495.61 pmol/mio cells
  cAMP: 67.63 pmol/mio cells
[4]; control cells, increase on first day of D-gal
  UDP-Glc and UDP-Gal levels: normalized at 4 days
[4]; controls, both with or without D-gal
  Nucleotide sugar ratio UDP-Glc/UDP-Gal, mean: 1.2
